Holding throughout (assay type): biochemical
For one assay, the target named is LG-PARP10cat (Homo sapiens, UniProt Q53GL7, L926G). Conditions: for increase in potency against LG-PARP10cat compared to 1: compared to parent dq scaffold 1.
The target in the next assay is GFP-LG-PARP10 (Homo sapiens, UniProt Q53GL7, L926G). Conditions: immunoprecipitated from HEK 293T cells, 6-alkyne-NAD+ substrate.
For another assay, the target named is T1, GFP-WT-PARP10 (Homo sapiens, UniProt Q53GL7).
T1 sequence (Q53GL7 1-1025): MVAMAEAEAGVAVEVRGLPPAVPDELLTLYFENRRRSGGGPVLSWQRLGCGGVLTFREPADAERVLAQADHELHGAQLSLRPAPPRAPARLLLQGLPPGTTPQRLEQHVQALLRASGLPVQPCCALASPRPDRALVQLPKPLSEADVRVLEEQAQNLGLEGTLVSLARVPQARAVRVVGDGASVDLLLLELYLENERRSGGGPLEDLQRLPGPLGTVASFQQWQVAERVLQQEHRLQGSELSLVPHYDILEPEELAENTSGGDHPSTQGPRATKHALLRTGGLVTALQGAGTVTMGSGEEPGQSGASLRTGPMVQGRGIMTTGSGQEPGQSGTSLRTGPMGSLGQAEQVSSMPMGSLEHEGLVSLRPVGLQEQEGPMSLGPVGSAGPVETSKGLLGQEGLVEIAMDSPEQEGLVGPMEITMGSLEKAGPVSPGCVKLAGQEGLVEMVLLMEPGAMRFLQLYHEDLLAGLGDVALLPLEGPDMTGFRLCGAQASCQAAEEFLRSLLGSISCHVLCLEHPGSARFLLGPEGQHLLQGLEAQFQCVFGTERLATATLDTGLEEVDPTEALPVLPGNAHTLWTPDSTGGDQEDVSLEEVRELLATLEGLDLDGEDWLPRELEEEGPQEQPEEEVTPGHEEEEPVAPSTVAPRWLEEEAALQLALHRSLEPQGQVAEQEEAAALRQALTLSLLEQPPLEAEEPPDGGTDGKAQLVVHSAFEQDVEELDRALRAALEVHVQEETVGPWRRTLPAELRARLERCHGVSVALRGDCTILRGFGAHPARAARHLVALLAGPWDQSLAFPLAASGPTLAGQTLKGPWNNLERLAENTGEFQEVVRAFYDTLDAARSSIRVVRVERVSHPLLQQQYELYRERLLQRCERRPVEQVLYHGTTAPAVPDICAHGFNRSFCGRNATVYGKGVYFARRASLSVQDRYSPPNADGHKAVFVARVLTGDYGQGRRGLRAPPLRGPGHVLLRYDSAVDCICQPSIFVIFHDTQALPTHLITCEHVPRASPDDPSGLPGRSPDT
Conditions: up to 100 μM; immunoprecipitated from HEK 293T cells, 6-alkyne-NAD+ substrate.

Sequence of LG-PARP10cat (Q53GL7 806-1025 L926G): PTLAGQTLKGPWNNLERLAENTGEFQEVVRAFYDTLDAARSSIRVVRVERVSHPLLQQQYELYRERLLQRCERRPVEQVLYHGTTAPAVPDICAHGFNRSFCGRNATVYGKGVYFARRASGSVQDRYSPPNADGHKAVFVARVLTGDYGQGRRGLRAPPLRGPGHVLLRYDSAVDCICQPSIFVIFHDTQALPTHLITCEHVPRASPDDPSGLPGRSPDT
Sequence of GFP-LG-PARP10 (Q53GL7 whole entry L926G): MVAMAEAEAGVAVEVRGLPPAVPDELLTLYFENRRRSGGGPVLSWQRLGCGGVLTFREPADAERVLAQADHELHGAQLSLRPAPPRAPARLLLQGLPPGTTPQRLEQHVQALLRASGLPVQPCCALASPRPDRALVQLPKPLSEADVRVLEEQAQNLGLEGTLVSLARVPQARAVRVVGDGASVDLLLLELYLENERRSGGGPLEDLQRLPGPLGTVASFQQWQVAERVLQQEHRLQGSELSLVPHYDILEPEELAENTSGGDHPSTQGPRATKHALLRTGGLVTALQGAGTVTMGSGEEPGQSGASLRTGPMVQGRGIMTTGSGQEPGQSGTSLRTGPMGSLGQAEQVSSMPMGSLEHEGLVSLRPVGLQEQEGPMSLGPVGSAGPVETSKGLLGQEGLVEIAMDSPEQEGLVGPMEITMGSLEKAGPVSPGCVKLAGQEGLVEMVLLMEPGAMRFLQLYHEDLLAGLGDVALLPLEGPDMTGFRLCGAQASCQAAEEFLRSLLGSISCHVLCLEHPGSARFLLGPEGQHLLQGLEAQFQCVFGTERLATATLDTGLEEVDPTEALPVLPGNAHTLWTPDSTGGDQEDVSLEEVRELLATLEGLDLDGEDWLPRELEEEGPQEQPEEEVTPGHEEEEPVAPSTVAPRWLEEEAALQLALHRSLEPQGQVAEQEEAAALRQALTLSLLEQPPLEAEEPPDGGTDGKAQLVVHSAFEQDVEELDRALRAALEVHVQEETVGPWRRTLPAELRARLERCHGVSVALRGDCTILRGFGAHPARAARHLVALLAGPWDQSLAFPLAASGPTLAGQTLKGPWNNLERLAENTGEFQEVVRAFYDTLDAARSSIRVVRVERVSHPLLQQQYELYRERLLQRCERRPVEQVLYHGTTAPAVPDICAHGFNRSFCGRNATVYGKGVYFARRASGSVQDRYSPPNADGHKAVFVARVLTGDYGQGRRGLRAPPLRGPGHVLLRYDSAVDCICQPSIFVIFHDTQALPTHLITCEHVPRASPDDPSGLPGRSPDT

For the compound `COc1ccc2c(c1)C(=O)NCC2` [Compound 8], the “increase in potency against LG-PARP10cat compared to 1” value (shortened to “increase in potency”) at LG-PARP10cat is reported as “did not exhibit increased potency”.

Regarding `O=C1NCCc2ccc(Br)cc21` [Compound 4, 7-Br-dq], at GFP-LG-PARP10, the “inhibition of auto-ADP-ribosylation of GFP-LG-PARP10” value is listed as “inhibited the auto-ADP-ribosylation of GFP-LG-PARP10 in a dose-dependent manner”. Further, the “effect on auto-ADP-ribosylation of GFP-WT-PARP10” value at GFP-WT-PARP10 is listed as “unaffected”. The “selectivity for LG-PARP10cat versus WT-PARP10cat” value on LG-PARP10cat (LG- versus WT-PARP10cat) is on record as “greater than 10 fold”.

On to `O=C1NCCc2ccc(O)cc21` [Compound 7], for which, at LG-PARP10cat, the “increase in potency” value is “did not exhibit increased potency”.

For `Cc1ccc2c(c1)C(=O)NCC2` [Compound 5], the “increase in potency” value on LG-PARP10cat is “did not exhibit increased potency”.

For the compound `O=C1NCCc2ccc(C(F)(F)F)cc21` [Compound 6], the “increase in potency” value on LG-PARP10cat was found to be 2 fold.

The record behind these values is PMC4607647 (Bioorganic & medicinal chemistry letters, 2015).
